Data set [1] can be described thus: octanol/water partition coefficient (log P) by TNBS assay. In kind it is physicochemical. The conditions noted are these: octanol/water mixture 1:1 v/v; mean, n = 3. The procedure:
Log P of Arg and both Arg-esters were determined using an already described method.[15] Each compound was dissolved in an octanol/water mixture (1:1, v/v). Afterward, octanol and water phases were separated by a high-speed mini centrifuge (Fisher Scientific, Illinois USA), and the concentration of each compound in each phase was determined by the TNBS assay. For this, a 50 μL volume from each phase was diluted 10 times with 0.1 M sodium bicarbonate (pH 8.5) containing 40% (v/v) isopropyl alcohol. After dilution, 250 μL of the TNBS reagent (0.01%, v/v) prepared in 0.1 M sodium bicarbonate (pH 8.5) was added to each sample that was incubated at 37 °C. After 2 h, the reaction was stopped by adding 250 μL of 10% (m/v) SDS and 125 μL of 1 M HCl. The absorbance of each sample was measured at 335 nm using a Spark multifunctional microplate reader (Tecan Austria, GmbH). The logarithm of the octanol/water absorbance ratio was expressed as log P for each sample.

The nature of data set [2]: critical micelle concentration (CMC), pyrene fluorescent method. The settings on record: aqueous solution, 37 °C, 3 h. In kind it is physicochemical. The procedure:
The critical micelle concentration (CMC) is an important solution property of any amphiphilic compound and can be defined as the minimum concentration at which micelles start to form. The CMC of Arg-esters was determined using a pyrene fluorescent method as described in a previous publication.[15] Methanol solution of pyrene (2 μM) was added to several vials (250 μL per vial) and evaporated overnight to leave thin dried films of pyrene. Aqueous solutions of Arg-esters were prepared in a wide concentration range and were added to individual vials containing pyrene films in a 500 μL volume. The samples were left stirring at 400 rpm, 37 °C. After 3 h, the fluorescence of each sample was measured at the excitation wavelength of 334 nm, and emissions were taken at 372 (I1) nm and 393 nm (I3). A graph was plotted between the fluorescent intensity ratio (I3/I1) and the log concentration of Arg-ester. Then, from the resulting curve for each Arg-ester, the “CMC value” was calculated. For the calculation of the CMC, the segmental linear regression method was used, and CMC values were obtained as the concentration corresponding to the intercept of the extrapolations of the first segment and the rapidly varying second segment of the I3/I1 versus log concentration plot. […]

Data set [3] deals with Bacillus subtilis ATCC 6633. Briefly: disk diffusion method. The class given is cell-based. The conditions noted are these: Bacillus subtilis, ATCC6633, read-out: zones of inhibition. The procedure:
(§1) Following bacterial strains were used for antimicrobial susceptibility testing: Escherichia coli ATCC 25922, Staphylococcus aureus ATCC 29213, Bacillus subtilis ATCC 6633, and Enterococcus faecalis ATCC 19433, which were obtained from the American Type Culture Collection (ATCC, Virginia, USA).
(§2) The disk diffusion method was used for the initial assessment of the antimicrobial activity of Arg-esters. Mueller Hinton agar (MHA, Biomerieux) medium was prepared according to the manufacturer protocol and poured into Petri dishes. All testing microorganisms were dissolved in saline and set to a 0.5 McFarland standard turbidity. This corresponds to a bacterial concentration of 1.5 × 10^8 colony-forming units per milliliter (CFU mL^–1). The bacterial suspension was then swabbed over solidified MHA Petri dishes ensuring homogeneous distribution. The test solutions of Arg-OL, Arg-DT, BAC, and cetrimide were prepared in water with 10% (v/v) DMSO at a concentration of 10 mg mL^–1. Water with 10% (v/v) DMSO was used as a negative control. The diffusion disks of about 6 mm in diameter were prepared from Whatman filter paper. After immersing disks in the above-prepared test solutions, they were placed on MHA plates already swabbed with different bacteria. After overnight incubation of Petri dishes at 37 °C, clear zones of bacterial growth inhibition around disks were measured.

In data set [4] the test system is Enterococcus faecalis ATCC 19433. Briefly: disk diffusion method. The class given is cell-based. The conditions noted are these: Enterococcus faecalis, ATCC19433, read-out: zones of inhibition. The procedure: as §1, §2
Data set [5] relates to Escherichia coli ATCC 25922. Briefly: disk diffusion method. The class given is cell-based. The settings on record: Escherichia coli, ATCC25922, read-out: zones of inhibition. The procedure: as §1, §2
In data set [6] the test system is Staphylococcus aureus ATCC 29213. Briefly: disk diffusion method. In kind it is cell-based. The settings on record: Staphylococcus aureus, ATCC29213, read-out: zones of inhibition. The procedure: as §1, §2
Data set [7] has as its system Bacillus subtilis ATCC 6633. Briefly: MIC testing by the microdilution method. The class given is cell-based. The conditions noted are these: Bacillus subtilis, ATCC6633, read-out: minimum inhibitory concentration. The procedure: as §1
(§3) The MIC is the lowest concentration of a substance that leads to a clearly visible growth inhibition after a defined incubation period. To evaluate the MIC of Arg-DT, Arg-OL, BAC, and cetrimide, a microdilution test was performed according to the guidelines of the Clinical and Laboratory Standards Institute.[19] First of all, similarly, as for the disk diffusion test, microorganisms were dissolved in saline and set to a 0.5 McFarland standard turbidity. This corresponds to a bacterial concentration of 1.5 × 10^8 colony-forming units per milliliter (CFU mL^–1); 50 μL of the bacterial suspension was added to 10 mL of Mueller Hinton Bouillon (MHB, Becton Dickinson, New Jersey, USA). The stock solutions were prepared as follows: the test compounds Arg-OL, Arg-DT, BAC, and cetrimide were dissolved in water with 10% (v/v) DMSO at a concentration of 10 mg mL^–1. The obtained solutions were used to prepare serial dilutions. The tested concentration for each substance ranged from 5000 to 5 μg mL^–1. Each test sample was added to a flat-bottomed tissue plate well in the volume of 75 μL. The first well of the tissue plate containing 75 μL of water with 10% (v/v) DMSO instead of any test sample was used as a positive control. Finally, 75 μL of the bacterial suspension was added to each well, and the plates were incubated at 37 °C overnight.
(§4) Before measuring the optical density (OD), plates were shaken for 15 min at 250 rpm. The OD was measured using the Bio-Rad 680 microplate reader (Hercules, California, USA) at a wavelength of 490 nm. Inhibition of bacterial growth was defined as a reduction of growth for at least 5 log units. Experiments were performed three times under analogous conditions for each bacterial strain and each tested sample.

The test system of data set [8] is Enterococcus faecalis ATCC 19433. The experiment in a line: MIC testing by the microdilution method. The conditions noted are these: Enterococcus faecalis, ATCC19433, read-out: minimum inhibitory concentration. In kind it is cell-based. The procedure:
as §1, §3, §4

Data set [9] concerns Escherichia coli ATCC 25922. Briefly: MIC testing by the microdilution method. In kind it is cell-based. The conditions noted are these: Escherichia coli, ATCC25922, read-out: minimum inhibitory concentration. The procedure: as §1, §3, §4
Data set [10] has as its system Staphylococcus aureus ATCC 29213. The experiment in a line: MIC testing by the microdilution method. The class given is cell-based. The conditions noted are these: Staphylococcus aureus, ATCC29213, read-out: minimum inhibitory concentration. The procedure: as §1, §3, §4

The structures appear in SMILES notation.

On to `CCCCCCCCCCCCC(CCCCCCCCCC)COC(=O)[C@@H](N)CCCNC(=N)N.O=C(O)C(F)(F)F` (some centres unmarked) [Arg-DT, 2-Decyltetradecyl Argininate Trifluoroacetate], for which the lipophilicity (logP) in [1] amounted to 0.6. Besides, the “critical micelle concentration (CMC)” value in [2] is 0.013 mM. Besides, the zone of inhibition at 10 µg/mL in data set [3] was determined as 18 mm; in [4] it was 16 mm; in [5], 9 mm; in [6], 16 mm. The MIC in data set [7] worked out at 5 µg/mL; in data set [8] it was 10 µg/mL; in [9] it was 39 µg/mL; in [10], 10 µg/mL.
Take `CCCCCCCCC=CCCCCCCCCOC(=O)[C@@H](N)CCCNC(=N)N.O=C(O)C(F)(F)F` [Arg-OL, Octadec-9-en-1-yl Argininate Trifluoroacetate]: the logP in [1] stood at 0.3. Further, the “critical micelle concentration (CMC)” value in data set [2] stood at 0.52 mM. For the same compound, the zone of inhibition at 10 µg/mL in [3] came out at 16 mm; in [4], 18 mm; in data set [5] it was 9 mm; in data set [6], 19 mm. Further, the MIC in data set [7] is 5 µg/mL; in [8], 5 µg/mL; in data set [9], 20 µg/mL; in data set [10], 10 µg/mL.

Values taken from article PMC7467771, “Lipophilic Arginine Esters: The Gateway to Preservatives without Side Effects” (Molecular Pharmaceutics, 2020).
